# Data from US6552071B2, “Methods for treating cell death diseases and inflammation” (President and Fellows of Harvard College, priority 1999, dated 2003).
# Experiments:
# Format in all cases: cell-based
# [1] = tested on: caspase-11; assay: LPS-induced caspase-11 expression in BalbC/3T3 cells, Western blot
# Protocol: FIG. 27 is a graph of the inhibition of caspase-11 induction by synthetic wedelolactone. BalbC/3T3 cells were treated with 0, 30 μM, 40 μM, 60μM, 80 μM or 100 μM of wedelolactone for 1 hour and LPS for an additional 6 hours. The induction of caspase-11 was measured by Western blot analysis and quantification.
# To identify modulators of caspase-11 expression or activity, a tissue culture model of caspase-11 induction was generated. In this model, BalbC/3T3 cells normally express undetectable levels of caspase-11 biological activity, as measured by Western blot analysis. […] A caspase-11 modulatory compound may be administered to the cells prior to administration of LPS, and then caspase-11 biological activity may be measured at a specific time after addition of LPS to the culture media of the cells. A caspase-11 modulatory compound that suppresses the LPS-induced biological activity of caspase-11 is considered to be a compound that modulates not only caspase-11 expression, but also cell death or inflammation.
# BalbC/3T3 cells were next preincubated with an ethanol extract of the plant Eclipta prostrata L. (454 g of Eclipta prostrata L. was extracted into 8 ml of ethanol; 5 μl of extract/ml of tissue culture media was applied to the cell culture) for 6 hours, followed by treatment with LPS for 6 hours, as described above. The level of caspase-11 protein expression was then measured.
# [2] = tested on: NF-κB; assay: NF-κB-luciferase reporter in LPS-treated BalbC/3T3 cells
# Protocol: FIG. 5A is a graph of the effect of the active Eclipta prostrata L. fraction on induction of NF-κB and caspase-11. BalbC/3T3 cells were transfected with an NF-κB luciferase report construct and treated with the ethylacetate fraction of Eclipta prostrata L. ethylacetate extract (EA) or 11,12-dihydroxy coumestan (10 mg/ml) for 1 hour and then treated with 2 μg/ml LPS for 9 hours. Luciferase activity was then determined.
# FIG. 28 is a graph of the inhibition of NF-κB activation by synthetic wedelolactone. BalbC/3T3 cells were transfected with NF-κB luciferase construct. Twelve hours later, cells were treated with 0, 20 μM, 40 μM, 60 μM, or 100 μM of wedelolactone for 1 hour and then 2 μg/ml LPS for additional 6 hours. Luciferase activity was then quantified.
# Since caspase-11 is induced through the NF-κB pathway, wedelolactone (FIG. 3) may inhibit the activity of NF-κB. To examine this possibility, BalbC/3T3 cells were transfected with an NF-κB-luciferase reporter plasmid (containing an NF-κB response element).
# The ability of synthetic wedelolactone to inhibit the activation of NF-κB induced by LPS was also assessed. BalbC/3T3 cells were transfected with a plasmid encoding an NF-κB-luciferase reporter protein in the presence of varying concentrations of wedelolactone. […] These experiments provided the final confirmation that wedelolactone is an inhibitor of NF-κB activation and caspase-11 induction. Thus, wedelolactone can be used to treat cell death diseases and inflammation.
# [3] = tested on: NF-κB p105 mRNA; assay: Atlas DNA array mRNA expression in LPS-treated BalbC/3T3 cells; conditions: 100 μM 1 h, then LPS 6 h, versus LPS only
# From the text: (§1) One hundred μM wedelolactone reduced the expression of NF-κB p105 mRNA in LPS-treated BalbC/3T3 cells at the ratio of 1 to 8.
# [4] = tested on: STAT1; assay: as above; conditions: 100 μM 1 h, then LPS 6 h
# From the text: as §1
# [5] = tested on: STAT3; assay: as above; conditions: 100 μM 1 h, then LPS 6 h
# From the text: as §1
Compound,"Suppression of LPS-induced caspase-11 expression ([1]; 70 μg/ml, 6 hour pre-treatment, then LPS)","IC50 ([1]; BALB/c3T3, BalbC/3T3 cells, wedelolactone 1 hour, LPS additional 6 hours, read-out: IC50, inhibition of induction of caspase-11 by LPS) [µM]","Inhibition of LPS-induced activation of the NF-κB promoter (FIG. 28) ([2]; 0-100 μM 1 hour, 2 μg/ml LPS 6 hours, same concentration range as caspase-11 inhibition)",Inhibition of NF-κB transcriptional activity induced by LPS ([2]; 60 and 100 μM),"Reduction of NF-κB p105 mRNA expression, ratio [3]","STAT1 expression level, % of control cells treated with LPS only [4] [%]","STAT3 expression level, % of control cells treated with LPS only [5] [%]",Inhibition of caspase-11 expression ([1]; general statement in Example 3),"Inhibition of LPS induction of NF-κB luciferase activity (FIG. 5A) ([2]; 1 hour pre-treatment, 2 μg/ml LPS 9 hours, coumestan 10 mg/ml)"
COc1cc(O)c2c(c1)oc(=O)c1c3cc(O)c(O)cc3oc21 [wedelolactone],suppressed caspase-11 expression,~50,inhibited the activation of the NF-κB promoter,inhibited the NF-κB transcriptional activity,1 to 8,4,30,–,–
"O=c1oc2ccccc2c2oc3cc(O)c(O)cc3c12 [11,12-dihydroxy coumestan, reference compound]",–,–,–,–,–,–,–,does not inhibit caspase-11 expression,did not inhibit NF-κB induction
